Experimental data from US20250228855A1, “PYRAZINAMIDE COMPOUNDS” (The General Hospital Corporation, priority 2022, published 2025).
Counter-ions that a name gives are not always drawn. Like-named read-outs stand apart in the source and are kept apart here.

Experiments:
PfcProRS = PfcProRS (Plasmodium falciparum, UniProt Q8I5R7); assay: TR-FRET ligand displacement assay with tracer MAT379, PfcProRS; assay type: binding
P. falciparum Dd2-2D4 = assay: P. falciparum asexual blood stage growth assay, wild-type Dd2-2D4; conditions: for EC50: DD2, 72 h, read-out: Dd2 (EC50 [nM]) wt
Experimental: Asexual blood stage (ABS) P. falciparum parasites were treated with test compounds at varying concentrations for 72 h, followed by quantification of parasite growth by SYBR Green staining.
P. falciparum Asexual Blood Stage Growth Assay: This assay was performed as previously described.

HsProRS = target: T1, HsProRS (Homo sapiens, UniProt P07814); assay: TR-FRET ligand displacement assay with tracer MAT379, HsProRS; assay type: binding
T1 sequence (P07814 1007-1512 limits assumed): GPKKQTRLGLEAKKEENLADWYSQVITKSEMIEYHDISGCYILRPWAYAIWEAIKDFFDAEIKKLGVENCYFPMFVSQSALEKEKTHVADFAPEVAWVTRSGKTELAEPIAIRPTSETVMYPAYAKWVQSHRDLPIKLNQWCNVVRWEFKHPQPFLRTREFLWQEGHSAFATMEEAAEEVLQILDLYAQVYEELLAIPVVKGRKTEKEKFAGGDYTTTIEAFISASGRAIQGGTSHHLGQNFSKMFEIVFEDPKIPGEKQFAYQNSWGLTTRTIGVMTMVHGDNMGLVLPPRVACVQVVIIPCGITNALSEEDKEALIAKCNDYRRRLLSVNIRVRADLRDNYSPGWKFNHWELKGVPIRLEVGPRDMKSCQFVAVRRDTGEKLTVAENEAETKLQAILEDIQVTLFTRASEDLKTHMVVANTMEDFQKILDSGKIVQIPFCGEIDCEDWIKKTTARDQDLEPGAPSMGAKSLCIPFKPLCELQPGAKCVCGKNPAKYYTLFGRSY

[1] = read-out: HsProRS (KD [nM]) +proline, 100 μM Pro
[2] = no proline, no ATP, read-out: PfcProRS (KD [nM]) −
[3] = no proline, no ATP, read-out: HsProRS (KD [nM]) −
[4] = PfcProRS (KD [nM]) +proline, 100 μM Pro
[5] = read-out: PfcProRS (KD [nM]) +proline, 100 μM Pro

Chain of PfcProRS (Q8I5R7 whole entry): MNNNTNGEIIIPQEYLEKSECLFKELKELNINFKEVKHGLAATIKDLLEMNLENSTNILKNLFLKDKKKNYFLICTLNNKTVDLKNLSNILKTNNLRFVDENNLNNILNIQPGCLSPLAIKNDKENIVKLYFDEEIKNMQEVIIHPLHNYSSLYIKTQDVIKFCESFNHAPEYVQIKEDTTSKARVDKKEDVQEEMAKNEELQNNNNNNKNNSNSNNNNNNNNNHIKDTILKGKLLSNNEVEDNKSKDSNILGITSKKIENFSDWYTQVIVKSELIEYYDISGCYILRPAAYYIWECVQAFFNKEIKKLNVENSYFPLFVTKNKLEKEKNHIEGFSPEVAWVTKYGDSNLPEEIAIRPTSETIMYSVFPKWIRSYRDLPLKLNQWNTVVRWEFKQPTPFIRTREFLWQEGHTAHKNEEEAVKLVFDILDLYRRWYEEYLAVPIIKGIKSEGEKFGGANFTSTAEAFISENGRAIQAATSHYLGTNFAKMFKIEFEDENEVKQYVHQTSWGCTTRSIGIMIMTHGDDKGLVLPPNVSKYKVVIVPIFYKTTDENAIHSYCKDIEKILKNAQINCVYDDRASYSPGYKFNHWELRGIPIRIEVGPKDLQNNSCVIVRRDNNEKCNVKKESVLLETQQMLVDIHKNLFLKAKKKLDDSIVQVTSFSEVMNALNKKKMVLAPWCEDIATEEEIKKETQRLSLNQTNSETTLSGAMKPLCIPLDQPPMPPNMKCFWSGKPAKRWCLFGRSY

SMILES | Kd (HsProRS; [1]) [nM] | Kd (PfcProRS; [2]) [nM] | EC50 (P. falciparum Dd2-2D4; Plasmodium falciparum) [nM] | Kd (HsProRS; [3]) [nM] | Kd (PfcProRS; [4]) [nM] | Kd (HsProRS) [nM] | other results
O=C(C[C@@H]1NCCC[C@@H]1OC(=O)NS(=O)(=O)N1CCN(C(=O)Nc2nccnc2C(=O)NC2Cc3ccccc3C2)CC1)Cn1cnc2cc(Br)c(Cl)cc2c1=O (relative stereo) [iso-MAT436(40), cis-2-(3-(7-bromo-6-chloro-4-oxoquinazolin-3(4H)-yl)-2-oxopropyl)piperidin-3-yl ((4-((3-((2,3-dihydro-1H-inden-2-yl)carbamoyl)pyrazin-2-yl)carbamoyl)piperazin-1-yl)sulfonyl)carbamate] | 20.8 | – | – | – | – | – | fold lower affinity / reduced biochemical potency relative to MAT436 (PfcProRS): ~10 fold; fold lower affinity / reduced biochemical potency relative to MAT436 (PfcProRS; listed as 40): 5-10 fold; fold less active than MAT436 against ABS P. falciparum (P. falciparum Dd2-2D4): 3 fold
CC(C)N(C(=O)Nc1nccnc1C(=O)NC1Cc2ccccc2C1)C(C)C [Compound 5, N-(2,3-dihydro-1H-inden-2-yl)-3-(3,3-diisopropylureido)pyrazine-2-carboxamide] | – | > 2860 | > 10000 | > 8720 | – | – | –
CC(C)(C)OC(=O)NC1CCN(C(=O)Nc2nccnc2C(=O)NC2Cc3ccccc3C2)CC1 [Compound 7, tert-butyl (1-((3-((2,3-dihydro-1H-inden-2-yl)carbamoyl)pyrazin-2-yl)carbamoyl)piperidin-4-yl)carbamate] | 34.8 | – | – | 22.1 | – | – | –
NC1CCN(C(=O)Nc2nccnc2C(=O)NC2Cc3ccccc3C2)CC1 [Compound 8, 3-(4-aminopiperidine-1-carboxamido)-N-(2,3-dihydro-1H-inden-2-yl)pyrazine-2-carboxamide dihydrochloride] | – | > 2860 | – | – | > 2180 | > 5090 | Kd (HsProRS; HsProRS (KD [nM]) −): > 8720 nM
NCC1CCN(C(=O)Nc2nccnc2C(=O)NC2Cc3ccccc3C2)CC1 [Compound 10, 3-(4-(aminomethyl)piperidine-1-carboxamido)-N-(2,3-dihydro-1H-inden-2-yl)pyrazine-2-carboxamide dihydrochloride] | 1360 | > 2860 | – | – | > 2180 | – | Kd (HsProRS; HsProRS (KD [nM]) −): > 8720 nM
O=C(NC1Cc2ccccc2C1)c1nccnc1NC(=O)N1CCC(CO)CC1 [Compound 11, N-(2,3-dihydro-1H-inden-2-yl)-3-(4-(hydroxymethyl)piperidine-1-carboxamido)pyrazine-2-carboxamide] | – | 299 | 712 | 265 | – | – | –
CC(C)(C)OC(=O)N1CCN(C(=O)Nc2nccnc2C(=O)NC2Cc3ccccc3C2)CC1 [Compound 13, tert-butyl 4-((3-((2,3-dihydro-1H-inden-2-yl)carbamoyl)pyrazin-2-yl)carbamoyl)piperazine-1-carboxylate] | – | > 2860 | – | > 8720 | > 2180 | > 5090 | –
O=C(NC1Cc2ccccc2C1)c1nccnc1NC(=O)N1CCNCC1 [Compound 14, N-(2,3-dihydro-1H-inden-2-yl)-3-(piperazine-1-carboxamido)pyrazine-2-carboxamide dihydrochloride] | 347 | > 2860 | – | – | 1630 | – | Kd (HsProRS; HsProRS (KD [nM]) −): > 8720 nM
CC(C)(C)OC(=O)NC1(C(=O)Nc2nccnc2C(=O)NC2Cc3ccccc3C2)CCCCC1 [Compound 16, tert-butyl (1-((3-((2,3-dihydro-1H-inden-2-yl)carbamoyl)pyrazin-2-yl)carbamoyl)cyclohexyl)carbamate] | – | > 2860 | 6110 | > 8720 | > 2180 | > 5090 | –
NC1(C(=O)Nc2nccnc2C(=O)NC2Cc3ccccc3C2)CCCCC1 [Compound 17, 3-(1-aminocyclohexane-1-carboxamido)-N-(2,3-dihydro-1H-inden-2-yl)pyrazine-2-carboxamide] | 25.5 | 1390 | 5790 | 4430 | 131 | – | –
O=C(NC1Cc2ccccc2C1)c1nccnc1NC(=O)C1CCOCC1 [Compound 18, N-(2,3-dihydro-1H-inden-2-yl)-3-(tetrahydro-2H-pyran-4-carboxamido)pyrazine-2-carboxamide] | 225 | > 2860 | > 20000 | 7400 | 1590 | – | –
O=C(Nc1nccnc1C(=O)NC1Cc2ccccc2C1)c1ccccc1 [Compound 21, 3-benzamido-N-(2,3-dihydro-1H-inden-2-yl)pyrazine-2-carboxamide] | 140 | > 2860 | 9600 | 7830 | 1430 | – | –
O=C(O)CCCC(=O)Nc1nccnc1C(=O)NC1Cc2ccccc2C1 [Compound 22, 5-((3-((2,3-dihydro-1H-inden-2-yl)carbamoyl)pyrazin-2-yl)amino)-5-oxopentanoic acid] | – | > 2860 | 12300 | > 8720 | > 2180 | > 5090 | –
NC(=O)Nc1nccnc1C(=O)NC1Cc2ccccc2C1 [Compound 23, N-(2,3-dihydro-1H-inden-2-yl)-3-ureidopyrazine-2-carboxamide] | – | > 2860 | 12100 | > 8720 | > 2180 | > 5090 | –
Nc1nccnc1C(=O)NC1Cc2ccccc2C1 [Compound 45, 3-amino-N-(2,3-dihydro-1H-inden-2-yl)pyrazine-2-carboxamide] | – | > 2860 | 13600 | > 8720 | > 2180 | > 5090 | –
CNc1nccnc1C(=O)NC1Cc2ccccc2C1 [Compound 46, N-(2,3-dihydro-1H-inden-2-yl)-3-(methylamino)pyrazine-2-carboxamide] | – | > 2860 | 8110 | > 8720 | > 2180 | > 5090 | –
O=c1[nH]c2nccnc2c(=O)n1C1Cc2ccccc2C1 [Compound 47, 3-(2,3-dihydro-1H-inden-2-yl)pteridine-2,4(1H,3H)-dione] | – | > 2860 | 11100 | > 8720 | > 2180 | – | –
Nc1nccnc1C(=O)NC1CCCCC1 [Compound 48, 3-amino-N-cyclohexylpyrazine-2-carboxamide] | – | > 2860 | 8740 | > 8720 | > 2180 | > 5090 | –
O=C(NC1CCCCC1)c1nccnc1NC(=O)C1Cc2ccccc2C1 [Compound 49, N-cyclohexyl-3-(2,3-dihydro-1H-indene-2-carboxamido)pyrazine-2-carboxamide] | – | > 2860 | 6800 | > 8720 | > 2180 | > 5090 | –
O=C(NC1Cc2ccccc2C1)c1nccnc1NS(=O)(=O)C1CCCCC1 [Compound 50, 3-(cyclohexanesulfonamido)-N-(2,3-dihydro-1H-inden-2-yl)pyrazine-2-carboxamide] | – | > 2860 | 13000 | > 8720 | > 2180 | > 5090 | –
CC(C)(C)OC(=O)NCCCCCC(=O)NCCCCCC(=O)NC1CCN(C(=O)Nc2nccnc2C(=O)NC2Cc3ccccc3C2)CC1 [MAT420] | 781 | – | – | – | – | – | Kd (PfcProRS; [5]): 332 nM; Kd (PfcProRS; read-out: PfcProRS (KD [nM]) −, no proline, no ATP): 292 nM; Kd (HsProRS; read-out: HsProRS (KD [nM]) −, no proline, no ATP): 415 nM
NCCCCCC(=O)NCCCCCC(=O)NC1CCN(C(=O)Nc2nccnc2C(=O)NC2Cc3ccccc3C2)CC1 [MAT421] | 2260 | 2280 | – | 2340 | – | – | Kd (PfcProRS; [5]): 1960 nM
Nc1ncnc2c1ncn2[C@@H]1O[C@H](COS(=O)(=O)NC(=O)OC2CCCNC2CC(=O)Cn2cnc3cc(Br)c(Cl)cc3c2=O)[C@@H](O)[C@H]1O (stereo partly drawn) [MAT430, ((2R,3S,4R,5R)-5-(6-amino-9H-purin-9-yl)-3,4-dihydroxytetrahydrofuran-2-yl)methy ((((2S,3R)-2-(3-(7-bromo-6-chloro-4-oxoquinazolin-3(4H)-yl)-2-oxopropyl)piperidin-3-yl)oxy)carbonyl)sulfamate] | – | 5.01 | – | 18.4 | – | – | –
O=C(CCCCCNC(=S)NC1CCCCC1)NC1CCN(C(=O)Nc2nccnc2C(=O)NC2Cc3ccccc3C2)CC1 [MAT483] | 3020 | 198 | – | 1000 | – | – | Kd (PfcProRS; [5]): 171 nM
O=C(NS(=O)(=O)N1CCN(C(=O)Nc2nccnc2C(=O)NC2Cc3ccccc3C2)CC1)OCCn1cnc2ccccc2c1=O [MAT512, 2-(4-oxoquinazolin-3(4H)-yl)ethyl ((4-((3-((2,3-dihydro-1H-inden-2-yl)carbamoyl)pyrazin-2-yl)carbamoyl)piperazin-1-yl)sulfonyl)carbamate] | – | – | > 10000 | – | – | – | –
O=C(NS(=O)(=O)NC1CCN(C(=O)Nc2nccnc2C(=O)NC2Cc3ccccc3C2)CC1)OCCn1cnc2ccccc2c1=O [MAT513, 2-(4-oxoquinazolin-3(4H)-yl)ethyl (N-(1-((3-((2,3-dihydro-1H-inden-2-yl)carbamoyl)pyrazin-2-yl)carbamoyl)piperidin-4-yl)sulfamoyl)carbamate] | – | – | 4830 | – | – | – | Kd (PfcProRS; absence of proline, read-out: KD for PfcProRS): 20.3 nM; IC50 (P. falciparum Dd2-2D4; Plasmodium falciparum, DD2, read-out: IC50 for Dd2-2D4): 4.83 µM; Kd (HsProRS; absence of proline, read-out: KD for HsProRS): 157 nM
